Where two headings read alike, the source gives them in different places.
Tests used:
[1] = system: mitochondrial membrane potential; format: cell-based, mouse; conditions: Conc 20 μM; for ΔΨm (composite Z-score): normalized score vs mock-treated (DMSO) wells
reactive oxygen species = format: cell-based, mouse; conditions: Conc 20 μM; for ROS (composite Z-score): normalized score vs mock-treated (DMSO) wells
OXPHOS gene expression = format: cell-based, mouse; conditions: Conc 20 μM; for GE-HTS (composite Z-score): normalized score vs mock-treated (DMSO) wells
nuOXPHOS transcripts = format: cell-based, mouse; conditions: Conc 20 μM; for nucOX (composite Z-score): normalized score vs mock-treated (DMSO) wells
mtOXPHOS transcripts = format: cell-based, mouse; conditions: Conc 20 μM; for mitoOX (composite Z-score): normalized score vs mock-treated (DMSO) wells
cytochrome c = format: cell-based, mouse; conditions: for cyt c (composite Z-score): normalized score vs mock-treated (DMSO) wells
C2C12 myotubes = conditions: Conc 20 μM; for Viability (composite Z-score): normalized score vs mock-treated (DMSO) wells
[2] = system: cellular dehydrogenase activity; conditions: Conc 20 μM; for MTT (composite Z-score): normalized score vs mock-treated (DMSO) wells
[3] = normalized composite Z-score vs mock-treated (DMSO) wells
[4] = normalized composite Z-score vs mock-treated (DMSO) wells, Conc 20 μM
[5] = composite Z-score vs mock-treated (DMSO) wells
[6] = composite Z-score vs DMSO, Conc 20 μM
[7] = composite Z-score vs DMSO wells

cytochrome c, sequence (P62897 whole entry): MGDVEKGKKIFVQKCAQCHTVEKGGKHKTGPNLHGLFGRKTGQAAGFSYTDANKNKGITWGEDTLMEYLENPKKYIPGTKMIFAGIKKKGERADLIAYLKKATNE

Molecule | ΔΨm [1, 3] | ROS (reactive oxygen species; [3]) | GE-HTS (OXPHOS gene expression; [3]) | nucOX (nuOXPHOS transcripts; [3]) | mitoOX (mtOXPHOS transcripts; [3]) | cyt c (cytochrome c; [4]) | Viability (C2C12 myotubes; [3]) | MTT [2, 3] | ΔΨm (composite Z-score) [1] | ROS (composite Z-score) (reactive oxygen species) | GE-HTS (composite Z-score) (OXPHOS gene expression) | nucOX (composite Z-score) (nuOXPHOS transcripts) | mitoOX (composite Z-score) (mtOXPHOS transcripts) | cyt c (composite Z-score) (cytochrome c; Conc 20 μM) | Viability (composite Z-score) (C2C12 myotubes) | MTT (composite Z-score) [2] | other results
C=C1CC[C@H]2O[C@]2(C)CC[C@@H]2[C@@H]1CC2(C)C [carylophyllene oxide] | −0.246 | 0.636 | −0.087 | 0.060 | −0.324 | 0.321 | −0.547 | −0.713 | – | – | – | – | – | – | – | – | –
O=C(/C=C/c1ccccc1)c1ccc(O[C@@H]2O[C@H](CO)[C@@H](O)[C@H](O)[C@H]2O)cc1O [2′,4′-dihydroxychalcone 4′-glucoside] | – | – | – | – | – | – | – | – | −0.532 | 1.144 | −0.189 | −0.247 | 0.004 | −0.225 | 0.556 | −1.358 | –
CC1(C)C2CC(=O)O[C@@]3(C)C4=CC(=O)O[C@@H](c5ccoc5)[C@]4(C)CCC3[C@@]2(C)C=C[C@H]1O (stereo partly drawn) [deoxyandirobin lactone] | – | – | – | – | – | – | – | – | – | – | – | – | – | – | – | – | ΔΨm [1, 5]: −0.395; ROS (reactive oxygen species; [5]): 0.837; GE-HTS (OXPHOS gene expression; [5]): −1.510; nucOX (nuOXPHOS transcripts; [5]): −1.558; mitoOX (mtOXPHOS transcripts; [5]): −1.179; cyt c (cytochrome c; composite Z-score vs mock-treated (DMSO) wells, Conc 20 μM): 0.893; Viability (C2C12 myotubes; [5]): 0.281; MTT [2, 5]: −1.509
CO/N=C(\C(=O)N[C@@H]1C(=O)N2C(C(=O)OCOC(=O)C(C)(C)C)=C(/C=C\c3scnc3C)CS[C@H]12)c1csc(N)n1 [cefditorin pivoxil] | – | – | – | – | – | – | – | – | – | – | – | – | – | – | – | – | ΔΨm ([1]; composite Z-score vs DMSO): 0.245; ROS (reactive oxygen species; composite Z-score vs DMSO): 0.426; GE-HTS (OXPHOS gene expression; composite Z-score vs DMSO): 0.238; nucOX (nuOXPHOS transcripts; composite Z-score vs DMSO): 0.100; mitoOX (mtOXPHOS transcripts; composite Z-score vs DMSO): 0.440; cyt c (cytochrome c; [6]): 0.200; Viability (C2C12 myotubes; composite Z-score vs DMSO): −0.219; MTT ([2]; composite Z-score vs DMSO): −0.718
C=C1C2CC[C@@]3(C)[C@H](c4ccoc4)OC(=O)C[C@]13O[C@H]1CC(=O)C(C)(C)[C@H](C(OC(C)=O)C(=O)OC)[C@@]21C (stereo partly drawn) [6-acetoxyangolensic acid methyl ester] | – | – | – | – | – | – | – | – | −0.055 | 1.137 | 1.379 | 1.291 | 1.272 | −0.105 | 0.671 | −0.663 | –
Cc1occc(=O)c1/C=C/O [2-methyl-3-hydroxyethylenepyran-4-one] | −0.608 | 0.234 | −0.128 | −0.012 | −0.305 | −0.244 | 0.309 | −0.725 | – | – | – | – | – | – | – | – | –
CC(NCCC(c1ccccc1)c1ccccc1)c1ccccc1 (stereo not drawn) [fendiline] | – | – | – | – | – | – | – | – | – | – | – | – | – | – | – | – | ΔΨm [1, 7]: −1.174; ROS (reactive oxygen species; [7]): 0.912; GE-HTS (OXPHOS gene expression; [7]): −1.005; nucOX (nuOXPHOS transcripts; [7]): −0.896; mitoOX (mtOXPHOS transcripts; [7]): −0.951; cyt c (cytochrome c): −0.405; cyt c (cytochrome c; composite Z-score vs DMSO wells, Conc 20 μM): −0.752; Viability (C2C12 myotubes; [7]): −0.080; MTT [2, 7]: −1.007
1,2alpha-epoxydeacetoxydihydrogedunin | 0.210 | 3.350 | −0.921 | −1.080 | −0.468 | −0.224 | 0.074 | −2.000 | – | – | – | – | – | – | – | – | –
COc1ccc([C@H]2COc3cc(O)ccc3C2)c(OC)c1O [mucronulatol] | – | – | – | – | – | – | – | – | 0.006 | −0.187 | −0.345 | −0.104 | −0.729 | −0.365 | 1.396 | −0.847 | –
C/C=C(\C)C(=O)O[C@H]1C[C@@H](OC(C)=O)[C@@]2(C(=O)OC)CO[C@H]3[C@@H](O)[C@@](C)([C@]45O[C@@]4(C)[C@H]4C[C@@H]5O[C@@H]5OC=C[C@@]54O)[C@H]4[C@]1(CO[C@]4(O)C(=O)OC)[C@@H]32 [azadirachtin] | – | – | – | – | – | – | – | – | – | – | – | – | – | – | – | – | ΔΨm ([1]; composite Z-score vs DMSO): −0.670; ROS (reactive oxygen species; composite Z-score vs DMSO): 0.494; GE-HTS (OXPHOS gene expression; composite Z-score vs DMSO): 0.119; nucOX (nuOXPHOS transcripts; composite Z-score vs DMSO): 0.152; mitoOX (mtOXPHOS transcripts; composite Z-score vs DMSO): 0.042; cyt c (cytochrome c; [6]): −0.421; Viability (C2C12 myotubes; composite Z-score vs DMSO): −0.479; MTT ([2]; composite Z-score vs DMSO): −1.018

Reference: US20090143279A1 (priority 2007, published 2009)
